# Experimental data reported in patent US7285541B2, “Treatment of melanoma by reduction in clusterin levels” (The University of British Columbia, priority 2002, dated 2007).
# e = 2'-O-(2-methoxyethyl) (MOE); d = 2'-deoxy (DNA)
# Legend:
# Mel Juso melanoma cells = assay: Cell survival of Mel Juso melanoma cells (Neo or clusterin overexpression) in cisplatin, Cell-titer 96; format: cell-based, human; conditions: 10 μM cisplatin, clusterin-overexpressing vs empty vector (Neo) Mel Juso cells
# Protocol: Mel Juso melanoma cells stably tranfected with either an empty control vector (Neo) or a vector directing overepression of clusterin were grown in medium containing 10 μM cisplatin. Cell survival was measured using the Cell-titer 96 kits from Promega.
# human melanoma cells = assay: Apoptotic cell death of human melanoma cells after antisense treatment; format: cell-based; conditions: antisense treatment alone
# 518A2 cells = assay: Sensitivity of antisense-treated melanoma cells to consecutive cisplatin treatment; format: cell-based, human; conditions: another melanoma cell line (FIG. 2, 518A2), compared to control-mismatch oligonucleotide
# bcl-xL = bcl-xL expression in clusterin-expressing melanoma cells (Western blotting); format: cell-based, human
# Text: While chaperone-like function has been proposed for the clusterin protein, the specific molecular mechanism responsible for clusterin's role in apoptosis remains elusive. In the human melanoma cell line that expressed clusterin at a very low levels, over-expression of clusterin by stable transfection not only led to a marked increase in resistance to a cytotoxic treatment (FIG. 3), but led also to an up-regulation of the anti-apoptotic bcl-2 family member bcl-xL as shown by Western blotting. […] Thus, clusterin regulates the anti-apoptotic bcl-2 family member bcl-xL. Such inhibition is significant because bcl-xL is known to act as an inhibitor of apoptosis (See U.S. Pat. No. 6,182,216 which is incorporated herein by reference in those jurisdictions permitting such incorporation).
# 607B melanoma cells = assay: Cell number of 607B melanoma cells measured photometrically using MTS; format: cell-based, human
# Protocol: Lipofectin™ (lip) without oligonucleotide was used as a control. Cells numbers in 96 well plates were measured photometrically using MTS (Cell Titer 96™, […]).
# clusterin = assay: Clusterin expression in human melanoma cells by RT-PCR and western-blot; format: cell-based; conditions: as compared to the scrambled mismatch control
# Protocol: Expression of clusterin in two different batches of normal human melanocytes (NHEM 6083 and 2489) and four human melanoma cell lines (518A2, SKMEL-28, Mel-Juso and 607B). Cells were grown in 6 cm dishes and harvested when they were 80-90% confluent. 30 μg of protein per lane was applied onto a 10% SDS-Page gel and probed with a polyclonal goat anti-clusterin antibody. Panceau red stain and an antibody directed against β-actin were used as a loading control. In each case, the antisense inhibitor of clusterin used is based on the advanced antisense chemistry 2′MOE as described in U.S. patent application Ser. No. 10/080,794 and has the sequence of Seq. ID. NO. 4.
# FIG. 2 provides a graphic representations of clusterin expression in 518A2 cells after treatment with cisplatin and either an antisense oligonucleotide or a scrambled control. Lip is a Lipofectin control without oligonucleotide. Detection was performed using an antibody directed against clusterin.
Compound,effectiveness of the chemotherapy agent (cell survival) (Mel Juso melanoma cells),apoptotic cell death (human melanoma cells),sensitivity of surviving cells to consecutive treatment with cisplatin (518A2 cells),expression of bcl-xL (bcl-xL),"cell death (607B melanoma cells; 607B melanoma cell line, antisense treatment alone)","cell counts (607B melanoma cells; 607B melanoma cells, antisense at 250 and 500 nM on two consecutive days, vs scrambled control 100 nM and Lipofectin)",down-regulation of clusterin on the mRNA level (clusterin; RT-PCR),down-regulation of clusterin on the protein level (clusterin; western-blot)
N.N.[Cl][Pt][Cl] [cisplatin],reduced the effectiveness,–,–,–,–,–,–,–
"cagcagcagagtcttcatcat (CAGCAGCAGAGTCTTCATCAT; sugars from the 5' end e4 d13 e4, all phosphorothioate, methylation of C not given here) [MOE modification of Seq. ID. NO. 4]",–,increase in apoptotic cell death,increased sensitivity,marked down-regulation,complete cell death,significantly reduced,dose dependent down-regulation,dose dependent down-regulation
